Legend:
hCG protein [1] = molecular target: T1, hCG protein (Homo sapiens, UniProt P01215+P0DN86); assay: SPR kinetics of peptide-hCG binding, carboxyl-GO chip, clinical serum samples
hCG protein [2] = molecular target: T1, hCG protein; assay: SPR kinetics of peptide-hCG binding, GO-based chip, PBS buffer; settings: hCG 10 pM-1 nM, 30 μL/min, 1:1 Langmuir model
[3] = system: peptide probe immobilized on carboxyl-GO chip; assay: SPR selectivity test with interfering proteins, spiked 10% serum; assay type: binding; settings: protein 500 pM, 60 μL/min, measured six times
[4] = system: peptide probe immobilized on carboxyl-GO chip; assay: SPR selectivity test with interfering proteins, PBS buffer; assay type: binding; settings: for interference signal: 500 pM, carboxyl-GO-based SPR aptasensor, PBS and spiked 10% serum; for average SPR angle shift: protein 500 pM, PBS buffer, 60 μL/min, measured six times

T1 sequence (P01215 25-116, other chains not shown): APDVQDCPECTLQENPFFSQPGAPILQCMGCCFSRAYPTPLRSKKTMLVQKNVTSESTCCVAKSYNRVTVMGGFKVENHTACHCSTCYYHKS

How did the “binding constant KA” value (hCG protein [1]; serum FDSW-1, 19 weeks) turn out when H-PPLRINRHILTR-OH [peptide] was run?
The value was 7.22e+10 M⁻¹.

And the “binding constant KA” value (hCG protein [1]; serum FDSW-2, 14 weeks)?
The value was 9.39e+10 M⁻¹.

And the “binding constant KA” value (hCG protein [1]; serum FDSW-3, 12 weeks)?
The value was 2.033e+11 M⁻¹.

And the “binding constant KA” value (hCG protein [1]; serum FDSW-4, 12 weeks)?
The value was 5.71e+10 M⁻¹.

And the “binding constant KA” value (hCG protein [1]; serum FDSW-5, 16 weeks)?
The value was 5.14e+10 M⁻¹.

What about the “binding constant KA” value (hCG protein [1]; serum FDSW-6, 17 weeks) of the same molecule?
The value was 1.39e+11 M⁻¹.

And the “binding constant KA” value (hCG protein [1]; serum NPW-1, 15 weeks)?
Its value is 2.819e+11 M⁻¹.

What about the “binding constant KA” value (hCG protein [1]; serum NPW-2, 12 weeks) of the same molecule?
The value was 2.763e+11 M⁻¹.

What about the “binding constant KA” value (hCG protein [1]; serum NPW-3, 14 weeks) of the same molecule?
The value was 1.28e+10 M⁻¹.

What about the “binding constant KA” value (hCG protein [1]; serum NPW-4, 17 weeks) of the same molecule?
Its value is 1.48e+10 M⁻¹.

What about the KA (hCG protein [2]) of the same molecule?
The KA was 1.41e+10 M⁻¹.

What about the ka (hCG protein [2]) of the same molecule?
The ka was 7.32 ×10^6 M^−1S^−1.

What about the kd (hCG protein [2]) of the same molecule?
The kd was 5.22 ×10^−4 S^−1.

Which “average SPR angle shift” value [3] does the source give for bovine serum albumin [BSA] here?
Its value is 2.60 m^o.

And the interference signal [4]?
Its interference signal is “close to that of a blank solution”.

What about the “average SPR angle shift” value [4] of the same molecule?
Its value is 1.31 m^o.

For “pregnancy-associated plasma protein A2 [PAPP-A2]”, which “average SPR angle shift” value [3] is on record?
The value was 2.51 m^o.

And the interference signal [4]?
The interference signal was “close to that of a blank solution”.

And the “average SPR angle shift” value [4]?
Its value is 2.39 m^o.

Which “average SPR angle shift” value [3] does the source give for “pregnancy-associated plasma protein A [PAPP-A]” here?
The value was 2.42 m^o.

What about the interference signal [4] of the same molecule?
The interference signal was “close to that of a blank solution”.

And the “average SPR angle shift” value [4]?
Its value is 1.37 m^o.

B1: human cytokeratin 19 (protein, UniProt P08727 1-400, looked up)
Keratin, type I cytoskeletal …: MTSYSYRQSSATSSFGGLGGGSVRFGPGVAFRAPSIHGGSGGRGVSVSSARFVSSSSSGAYGGGYGGVLTASDGLLAGNEKLTMQNLNDRLASYLDKVRALEAANGELEVKIRDWYQKQGPGPSRDYSHYYTTIQDLRDKILGATIENSRIVLQIDNARLAADDFRTKFETEQALRMSVEADINGLRRVLDELTLARTDLEMQIEGLKEELAYLKKNHEEEISTLRGQVGGQVSVEVDSAPGTDLAKILSDMRSQYEVMAEQNRKDAEAWFTSRTEELNREVAGHTEQLQMSRSEVTDLRRTLQGLEIELQSQLSMKAALEDTLAETEARFGAQLAHIQALISGIEAQLGDVRADSERQNQEYQRLMDIKSRLEQEIATYRSLLEGQEDHYNNLSASKVL
How did the “average SPR angle shift” value [3] turn out when B1 was run?
Its value is 1.74 m^o.

And the interference signal [4]?
The interference signal was “close to that of a blank solution”.

What about the “average SPR angle shift” value [4] of the same molecule?
The value was 1.65 m^o.
